Laboratory results reported in ChEMBL document CHEMBL5724709, “EUbOPEN Chemogenomics Library - IncuCyte” (2024).

Experiments:
Assay type in all cases: toxicity, cell-based
[1] = tested on: HEK-293T; assay: Incucyte cell viability with HEK293T; details: human, 24 h, 10 µM, compound concentration 10 uM
[2] = tested on: Fibroblast; assay: Incucyte cell viability with human fibroblast; details: 24 h, 10 µM, compound concentration 10 uM
[3] = tested on: U2OS; assay: Incucyte cell viability with U2OS; details: human, 24 h, 10 µM, compound concentration 10 uM
Also: unitless GR value; below 1 slowed growth and below 0 cell loss.

Row | Structure (SMILES) | Growth Rate ([1]; replicate number 1) | Growth Rate ([1]; replicate number 2) | Growth Rate ([2]; replicate number 1) | Growth Rate ([2]; replicate number 2) | Growth Rate ([3]; replicate number 1) | Growth Rate ([3]; replicate number 2)
1 | CC(C)n1nc(-c2cc3cc(O)ccc3[nH]2)c2c(N)ncnc21 | -0.17 | -0.09 | 0.59 | 0.98 | -0.49 | -0.01
2 | CC(=O)Nc1ccc(OC[C@](C)(O)C(=O)Nc2ccc([N+](=O)[O-])c(C(F)(F)F)c2)cc1 | 0.72 | 0.87 | 0.07 | 1 | 1 | 0.76
3 | COc1cc(Oc2ccnc3cc(OC)c(OC)cc23)ccc1NC(=O)NC(C)c1nccs1 (stereo unspecified) | 1 | – | 0.18 | -0.01 | 0.56 | 0.82
4 | Oc1ccc(-c2c(-c3ccccc3)nn3c(C(F)(F)F)cc(C(F)(F)F)nc23)cc1 | 1 | 0.97 | 1 | 0.27 | 1 | –
5 | COc1ccc(N(C(=O)Oc2c(C)cccc2C)c2ccnc(Nc3ccc(N4CCN(C)CC4)cc3)n2)c(OC)c1 | 0.49 | 0.97 | 0.52 | 1 | 0.04 | 0.72
6 | CCN1C(C)(C)CC(Oc2ccc(C(=O)Nc3ccc(NC(=O)Nc4cc(C(C)(C)C)on4)cc3)nc2)CC1(C)C | -0.29 | 0.58 | 0.74 | 0.78 | 0.51 | 0.66
7 | Cc1cc(OCc2nnc(SC3CCCC3)n2-c2cccnc2)ccc1-c1ccc(S(C)(=O)=O)cc1 | -0.22 | – | -0.37 | -0.82 | -0.5 | -0.4
8 | N=C(N)N/N=C/c1cccc(Cl)c1Cl | 0.5 | 0.8 | 0.46 | 0.86 | 0.24 | 0.53
9 | O=C(COc1ccc(-c2oc3cc(O)c(C(=O)O)cc3c2C#Cc2cccc(Cl)c2)cc1)NC1CC1 | 0.87 | 0.84 | 0.84 | -0.06 | 0.39 | 0.84
10 | O=C(C=Cc1ccc(O)cc1)c1ccc(O)cc1O | 0.72 | 0.82 | 0.64 | 1 | 0.9 | 0.75
11 | Nc1c[nH]c(=O)c2cc(-c3ccccc3)sc12 | 0.88 | 0.73 | -0.61 | -0.86 | -0.48 | 0.33
12 | O=C(Nc1ccc2[nH]nc(-c3ccncc3)c2c1)[C@@H]1CCN(CC(=O)N2CCN(c3ccc(-c4ncccn4)cc3)CC2)C1 | -0.08 | -0.01 | 1 | – | 0.65 | 1
13 | Cc1ncc(Cl)cc1NCc1ccc(C(=O)N[C@@H](CC2CCCC2)C(=O)NC2CC2)s1 | 0.59 | 0.85 | 0.64 | 0.26 | 0.37 | 0.86
14 | O=C(C1CC1)N1CC[C@@H](Cc2n[nH]c(=O)n2-c2ccc(-c3ccc4occc4c3)cc2)C1 | 0.73 | 1 | 0.43 | 0 | 0.54 | 0.69
15 | O=C(NO)c1cnc(NC2(c3ccccc3)CC2)nc1 | 0.73 | 0.94 | -0.29 | 0.31 | -0.38 | -0.13
16 | CSc1cccc(Nc2ncc3cc(-c4c(Cl)cccc4Cl)c(=O)n(C)c3n2)c1 | -0.41 | 0.24 | -0.25 | -0.52 | -0.64 | -0.15
17 | O=c1[nH]ccc2cc(F)c(NS(=O)(=O)c3ccc(N4CC[C@@H](O)C4)s3)cc12 | 0.79 | 0.98 | 0.99 | 0.64 | 1 | 0.94
18 | Cc1ncsc1-c1ccc([C@H](C)NC(=O)[C@@H]2C[C@@H](O)CN2C(=O)[C@@H](NC(=O)COCCCOCCNC(=O)C[C@@H]2N=C(c3ccc(Cl)cc3)c3c(sc(C)c3C)-n3c(C)nnc32)C(C)(C)C)cc1 | 0.46 | 0.43 | -0.26 | -0.44 | -0.38 | 0.03
19 | Cc1cc(Cn2c(=O)n(Cc3cnc(C)s3)c(=O)c3cc(S(=O)(=O)NC4(C)CC4)ccc32)n(C)n1 | 0.6 | 0.74 | 0.47 | 0.68 | 0.64 | 0.54
20 | FC(F)(F)Oc1ccc(Oc2ccnc(N3CCC(NC(=S)Nc4cccnc4)CC3)c2Cl)c(Cl)c1 | -0.1 | 0.12 | 0.38 | -0.07 | 0.35 | 0.56
21 | N#Cc1ccc([C@H]2CCCC[C@H]2O)cc1C(F)(F)F | 0.83 | 0.95 | 0.21 | 1 | 1 | 0.84
22 | O=S(=O)(O)c1ccc2cc(/N=N/c3cc(S(=O)(=O)O)c4cccnc4c3O)ccc2c1 | 1 | – | 0.17 | -0.42 | -0.34 | 1
23 | Cc1ncsc1-c1ccc(CNC(=O)[C@@H]2C[C@@H](O)CN2C(=O)[C@@H](NC(=O)COCCOCCOc2ccc(-c3ccc4ncnc(Nc5ccc(OCc6cccc(F)c6)c(Cl)c5)c4c3)cc2)C(C)(C)C)cc1 | 1 | – | 1 | 0.62 | 1 | 0.6
24 | COc1cc(-c2cn(C)c(=O)c3cnccc23)cc(OC)c1CN(C)CC(=O)NCCOCCOCCNc1cccc2c1C(=O)N(C1CCC(=O)NC1=O)C2=O (stereo unspecified) | 0.8 | 0.98 | 0.26 | 0.72 | 0.78 | 0.96
25 | O=C1/C(=N/Nc2ccc(S(=O)(=O)O)cc2)C(c2ccc([N+](=O)[O-])cc2)=NN1c1ccccc1 | 0.59 | 1 | 1 | – | 0.88 | 1
26 | CCCn1/c(=N/C(=O)c2cccc(C(N)=O)c2)[nH]c2ccccc21 | 0.77 | 0.9 | 1 | – | 1 | 0.99
27 | CCC[C@H]1CNCc2c1[nH]c(=O)c(C#N)c2N1CCC2(CC1)CC2.Cl | 0.75 | 0.9 | -0.11 | 0.09 | 0.97 | 1
28 | O=C(c1ccc2[nH]ccc2c1)N1CCN(S(=O)(=O)c2ccc3[nH]c(=O)oc3c2)CC1 | 0.91 | 1 | 0.24 | 1 | 0.5 | 0.82
29 | COc1cc(O)c2c(c1)/C=C\C[C@H](O)[C@H](O)C(=O)/C=C\C[C@H](C)OC2=O | -0.3 | -0.25 | -0.67 | -0.85 | -0.54 | -0.35
